“Also recorded” adds a separate entry of the source.
Key:
[1] = test system: S. agalactiae (NCTC 8181); experiment: β-lactam disk diffusion susceptibility test with and without lignin; assay type: cell-based, Streptococcus agalactiae; details: disks 10 μg penicillin, 10 μg ampicillin, 30 μg amoxicillin+clavulanic acid, 24 h
Method: (§1) Example 13. Sensitivity of S. agalactiae and S. uberis to β-lactams and lignin. Type strains of S. agalactiae and S. uberis Diemhofer (NCTC 8181 and NCTC 3858, respectively) were obtained from the American Type Culture Collection (ATCC) as lyophilized pellets. Cells were revived by resuspension in 5 mL Todd Hewitt broth (THB, 3% w/v) and static incubation for 24 h at 37° C. Culture OD600 was measured and the volume to achieve OD600=0.025 was added to 50 mL fresh THB in 250 mL Erlenmeyer flasks and grown for 2 hours; S. agalactiae cultures were supplemented with 1 μM hemin and 10 μM menaquinone and grown at 37° C. and 200 rpm, while S. uberis was grown statically at 37° C. Cultures were centrifuged at 4500 rpm for 10 minutes. Due to differences in pellet sizes, S. agalactiae pellets were resuspended in 1 mL Hank's Balanced Salt Solution (HBSS), and S. uberis pellets were resuspended in 400 μL HBSS in order to normalize the OD600 of the two cell suspensions. […] Paper disks containing 10 μg penicillin, 10 μg ampicillin, and 30 μg amoxicillin+clavulanic acid (Oxoid, Basingstoke, UK) were placed on the agar, then incubated for 24 h at 37° C. Plates were inspected for zones of clearance around the disks indicating susceptibility.

[2] = test system: S. uberis Diemhofer (NCTC 3858); experiment: as above; assay type: cell-based, Streptococcus uberis; details: disks 10 μg penicillin, 10 μg ampicillin, 30 μg amoxicillin+clavulanic acid, 24 h
Method: as §1

[3] = test system: S. aureus LAC-13C (methicillin-resistant, MRSA); experiment: β-lactam disk diffusion susceptibility test; assay type: cell-based, Staphylococcus aureus; details: disks 1 μg oxacillin, 10 μg ampicillin, 10 μg penicillin, 24 h
Method: (§2) Example 9. β-lactam disk diffusion susceptibility test. […] Methicillin-susceptible and methicillin-resistant S. aureus, UAMS-1 and LAC-13C, respectively, were streaked for isolation on tryptic soy agar (TSA) plates and incubated for 24 hours at 37° C. Overnight cultures were prepared by picking a single colony of each strain from its plate and adding to separate 3 mL sterile tryptic soy broth (TSB) in a 5 mL culture tube and incubating 14-16 h at 37° C. and 250 rpm. Next, the optical density at 600 nm (OD600) was measured to prepare fresh 50 mL cultures with OD600=0.1 to be grown for 2-3 hours at 37° C. and 250 rpm. Cultures were pelleted by centrifugation at 4500 rpm, then resuspended and concentrated in 500 μL sterile 1× Hank's Balanced Salt Solution (HBSS). […] To achieve lawn-style growth, cells were spread across the plates with sterile glass beads.

[4] = test system: S. aureus UAMS-1 (methicillin-sensitive, MSSA); experiment: β-lactam disk diffusion susceptibility test; assay type: cell-based, Staphylococcus aureus; details: disks 0.2 μg oxacillin, 2 μg ampicillin, 2 μg penicillin, 24 h
Method: as §2

[5] = test system: S. aureus UAMS-1; experiment: Tunicamycin disk diffusion assay; assay type: cell-based, Staphylococcus aureus; details: 2 μg disk, 24 h
Method: Tunicamycin disk diffusion assay: S. aureus UAMS-1 cultures were prepared by inoculating separate 15-mL culture tubes containing 3 mL sterile 3% (w/v) TSB with a single colony and incubated 14-16 h at 37° C. while shaking at 250 rpm. Fresh 50-mL cultures with an initial OD600=0.025 were prepared and incubated for 2 h at 37° C. and 250 rpm. Cells were collected by centrifugation at 4,500 rpm and resuspended in 500 μL sterile Hank's Balanced Salt Solution (HBSS; Corning, Corning, NY). […] Cells were spread across the plates with sterile glass beads and the plates were left open to dry in a clean laminar-flow hood for 10-15 min. […] Three biological replicates were analyzed.

[6] = in the presence of 5 mg/mL lignin
[7] = TSA with 50 mM MOPS and 5 mg/mL lignin
[8] = TSA without lignin (50 mM MOPS)

| Compound | sensitivity (zone of clearance around disk) [1, 6] | sensitivity (zone of clearance around disk) ([1]; without lignin (50 mM MOPS)) | sensitivity (zone of clearance around disk) [2, 6] | sensitivity (zone of clearance around disk) ([2]; without lignin (50 mM MOPS)) | susceptibility (zone of clearance around disk) [3, 7] | susceptibility (zone of clearance around disk) [4, 7] | susceptibility (zone of clearance around disk) [4, 8] | susceptibility (zone of clearance around disk) [3, 8] | zone of clearance around disk ([5]; TSA with 50 mM MOPS + 5 mg/mL lignin) | zone of clearance around disk ([5]; TSA with 50 mM MOPS + 5 mg/mL lignin, listed as Tunicamycin) | zone of clearance around disk ([5]; TSA with 50 mM MOPS, no lignin) | zone of clearance around disk ([5]; TSA with 50 mM MOPS, no lignin, listed as Tunicamycin) |
| --- | --- | --- | --- | --- | --- | --- | --- | --- | --- | --- | --- | --- |
| CC1(C)S[C@@H]2[C@H](NC(=O)[C@H](N)c3ccccc3)C(=O)N2[C@H]1C(=O)O [ampicillin] | highly sensitive | some susceptibility; also recorded: moderately sensitive | highly sensitive | some susceptibility; also recorded: moderately sensitive | increased sensitivity/susceptibility | at least partially sensitive/susceptible; also recorded: increased sensitivity/susceptibility | completely or nearly completely resistant; also recorded: moderately resistant | – | – | – | – | – |
| Cc1onc(-c2ccccc2)c1C(=O)N[C@@H]1C(=O)N2[C@@H]1SC(C)(C)[C@@H]2C(=O)O [oxacillin] | – | – | – | – | sensitive; also recorded: increased sensitivity/susceptibility | increased sensitivity/susceptibility | sensitive/susceptible | completely resistant | – | – | – | – |
| amoxicillin+clavulanic acid | highly sensitive | some susceptibility; also recorded: moderately sensitive | highly sensitive | some susceptibility; also recorded: moderately sensitive | – | – | – | – | – | – | – | – |
| penicillin | highly sensitive | some susceptibility; also recorded: moderately sensitive | highly sensitive | some susceptibility; also recorded: moderately sensitive | increased sensitivity/susceptibility | at least partially sensitive/susceptible; also recorded: increased sensitivity/susceptibility | completely or nearly completely resistant; also recorded: moderately resistant | – | – | – | – | – |
| tunicamycin | – | – | – | – | – | – | – | – | susceptibility | a clearance zone was observed | tolerance of the antibiotic | No clearance zone was observed |

From patent US12582670B2, “Lignin solvation using aqueous biologically compatible buffers” (priority 2019, dated 2026)
